# Experimental data as given in patent US7556938B1, “Nucleic acids encoding potassium channel interactors” (Millennium Pharmaceuticals, Inc., priority 1998, dated 2009).
# Legend:
# Kv4.3/KChIP1 = molecular target: T1, Kv4.3/KChIP1 (Rattus norvegicus, UniProt Q62897); experiment: Fatty acid modulation of Kv4.3/KChIP1 current in Xenopus oocytes; assay type: cell-based; conditions: for block of Kv4.3 peak amplitude: Kv4.3/KChIP1, 10 μM fatty acid, vs no-fatty acid control; for effect on Kv4.3 inactivation time constant: Kv4.3 co-expressed with KChIP1, 10 μM fatty acid
# T1 sequence (Q62897 1-655): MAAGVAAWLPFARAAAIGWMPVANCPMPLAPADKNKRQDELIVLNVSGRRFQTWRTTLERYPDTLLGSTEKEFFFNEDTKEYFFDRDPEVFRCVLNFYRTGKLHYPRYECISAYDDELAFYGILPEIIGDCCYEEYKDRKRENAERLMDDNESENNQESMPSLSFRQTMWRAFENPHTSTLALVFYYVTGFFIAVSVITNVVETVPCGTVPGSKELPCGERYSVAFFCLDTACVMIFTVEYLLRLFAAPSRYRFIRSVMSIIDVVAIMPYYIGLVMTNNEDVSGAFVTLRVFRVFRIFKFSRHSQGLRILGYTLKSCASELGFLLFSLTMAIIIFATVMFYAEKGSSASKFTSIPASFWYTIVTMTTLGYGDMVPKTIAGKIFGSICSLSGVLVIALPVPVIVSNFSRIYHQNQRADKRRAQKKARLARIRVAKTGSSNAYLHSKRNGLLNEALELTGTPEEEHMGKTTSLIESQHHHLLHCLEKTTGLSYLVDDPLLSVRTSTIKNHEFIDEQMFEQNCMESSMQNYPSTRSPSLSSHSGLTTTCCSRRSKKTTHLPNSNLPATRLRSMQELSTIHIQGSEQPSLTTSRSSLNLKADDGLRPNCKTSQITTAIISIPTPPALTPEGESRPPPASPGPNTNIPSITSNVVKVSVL
# T1 sequence (Q8R426 1-216 isoform Q8R426-2 partner): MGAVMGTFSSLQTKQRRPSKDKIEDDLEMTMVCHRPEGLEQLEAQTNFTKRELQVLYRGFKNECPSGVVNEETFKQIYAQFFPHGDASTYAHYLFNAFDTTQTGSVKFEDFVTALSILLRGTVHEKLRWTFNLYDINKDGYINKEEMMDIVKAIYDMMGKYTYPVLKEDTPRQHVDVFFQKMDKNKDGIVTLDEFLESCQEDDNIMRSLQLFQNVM
# Protocol: (§1) Frogs underwent no more than two surgeries and surgeries were performed by well established techniques. Frogs were anesthetized with ice. Total cRNA (1-10 ng) was injected into stage IV Xenopus oocytes that were harvested the previous day. The Xenopus oocytes were incubated in ND96 containing (in mM) 96 NaCl, 2 KCl, 1.8 CaCl2, 1 MgCl2, 5 HEPES, pH 7.6, plus (Gentamycin 50 μg/ml) at 18° C. Xenopus oocytes were studied 3-7 days after injection. The two-electrode voltage-clamp recordings were performed in ND96 solution using a TURBO TEC 03 Clamp Amplifier (ALA Scientific Instruments, Westbury, N.Y.). Both electrodes were filled with 3 M KCl and had electrode resistances ranging from 0.2-1 MOhm. The current signals were filtered at 1000 Hz before transferred on a PC (Gateway, Calif.) using the PULSE software (HEKA, Germany). In this Example, the hypothesis that […] were the missing auxiliary subunits that accounted for the above kinetic discrepancy was investigated by expressing Kv4 alone or together with […] in both CHO cells and Xenopus oocytes, and measuring their inactivation time constants (using art known techniques as described in, for example, An et al. (2000) Nature 403:553-6; Keros, S. and […]. Neuroscience 17: 3476-87; and Villarroel, A. and […]. Neuroscience 16:2522-32). The effects of different concentrations of arachidonic acid on Kv4/KChIP current was studied in Xenopus oocytes. Because the physiological concentrations of arachidonic acid are often under 10 μM (Needleman, et al., 1986 Annu Rev Biochem 55:69-102; Anderson and Welsh, 1990, Proc Natl Acad Sci USA 87:7334-8; Meves, 1994, Prog Neurobiol 43:175-86), arachidonic acid was tested in the 1-10 μM range. […] Further, the slope of amplitude reduction as a function of increasing concentrations was very similar with or without the presence of […]. […] Villarroel and Schwarz, (1996) J.
# Kv4.3 = experiment: Fatty acid modulation of Kv4.3 current (Kv4.3 alone) in Xenopus oocytes; assay type: cell-based, rat; conditions: Kv4.3 alone, 10 μM fatty acid, vs no-fatty acid control
# Protocol: as §1
smiles,measurement,setting,value
"CCCCCCCCC#CCC#CCC#CCCCC(=O)O [ETI, 5,8,11-eicosatriynoic acid]",block of Kv4.3 peak amplitude,Kv4.3/KChIP1,inhibited significantly
same,effect on Kv4.3 inactivation time constant,Kv4.3/KChIP1,reduced Kv4.3 inactivation time constant
same,block of Kv4.3 peak amplitude,Kv4.3,inhibited significantly
CCCCC/C=C\C/C=C\C/C=C\CCCCC(=O)O [γ-linolenic acid],block of Kv4.3 peak amplitude,Kv4.3/KChIP1,inhibited significantly
same,effect on Kv4.3 inactivation time constant,Kv4.3/KChIP1,reduced Kv4.3 inactivation time constant
same,block of Kv4.3 peak amplitude,Kv4.3,inhibited significantly
CCCCC/C=C/C/C=C/CCCCCCCC(=O)O [linolelaidic acid],block of Kv4.3 peak amplitude,Kv4.3/KChIP1,"small, statistically significant block"
same,effect on Kv4.3 inactivation time constant,Kv4.3/KChIP1,did not affect the Kv4.3 inactivation time constant
same,block of Kv4.3 peak amplitude,Kv4.3,All values except that of linolelaidic acid/Kv4.3 alone were statistically significant
"CCCCCC#CCC#CCC#CCC#CCCCC(=O)O [ETYA, 5,8,11,14-eicosatetraynoic acid]",block of Kv4.3 peak amplitude,Kv4.3/KChIP1,inhibited significantly
same,effect on Kv4.3 inactivation time constant,Kv4.3/KChIP1,reduced Kv4.3 inactivation time constant
same,block of Kv4.3 peak amplitude,Kv4.3,inhibited significantly
